The values below come from patent US8414885B2, “Methods and compositions for treating cancer” (priority 2009, dated 2013).

Molecules are shown by their SMILES.

One assay relates to LC3-I/LC3-II. The experiment in a line: Immunoblotting for LC3-I conversion to LC3-II (autophagy). Particulars: A2058, 3-MA 5 mM. The format is cell-based, human. On the procedure: (§1) FIG. 14. ΔPK induced autophagy contributes to its ability to cause melanoma cell death. (A) A2058 cells were mock or ΔPK-infected (multiplicity of infection, moi=1.0) with and without the autophagy inhibitor 3-MA and protein extracts were assayed for LC3-I and LC3-II expression by immunoblotting. Data were quantified by densitometric scanning, and results are expressed as LC3-I/LC3-II ratio±s.d. (B). A2058 melanoma cultures were mock or ΔPK-infected (moi=5), cultured in serum-free medium and stained with ethidium homodimer-1 (EtHD-1) at 48 h p.i. Cells were counted in three randomly selected fields (>250 cells) and the mean percentage of staining cells was calculated.
The role of autophagy in cell death is still controversial. The general consensus is that autophagy is a mechanism that promotes or counteracts cell death depending on the cell type, stimulus and conditions. […] To examine whether autophagy was increased in ΔPK infected cells, we focused on LC3-I conversion to LC3-II which serves as a marker for autophagosome maturation.
A2058 cells were mock and ΔPK-infected (multiplicity of infection, moi=1.0) with and without the autophagy inhibitor 3-MA. Data were quantified by densitometric scanning, and results are expressed as the ratio of the LC3-I/LC3-II ratio±s.d.
Background: A western blot detects proteins with antibodies after separation by electrophoresis.

The test system of the next assay is A2058 melanoma cultures. Put plainly: EtHD-1 cell death with or without autophagy inhibitor. Format: cell-based, human. Particulars: A2058, ΔPK plus 3-MA, 48 h p.i. On the procedure:
as §1
To examine the role of autophagy in ΔPK-induced melanoma cell death, the cultures were mock-infected with PBS or infected with ΔPK in the absence or presence of 3-MA and cell death was determined at 0-72 h p.i. by EtHD-1 staining. ΔPK caused a time-dependent increase in the percentage of EtHD-1+ cells that reached maximal levels at 48 h p.i. (51.1±4.8%,).
A2058 melanoma cultures were mock or ΔPK-infected (moi=0.5), cultured in serum-free medium and stained with ethidium homodimer-1 (EtHD-1) at 48 h p.i. Cells were counted in three randomly selected fields (>250 cells) and the mean percentage of staining cells was calculated.

On to `Cn1cnc(N)c2ncnc1-2` [3-MA, 3-Methyl-adenine], for which the “effect of inhibitor on LC3-I conversion after ΔPK treatment” value with LC3-I/LC3-II is listed as “reversed LC3-I conversion”. In addition, the “percentage of cell death (EtHD-1+) in ΔPK infected cultures in presence of inhibitor” value with A2058 melanoma cultures amounted to 37.3±5.2%.
